Laboratory results published in patent EP1247803A2, “Indolinone compounds suitable for modulation of protein kinases” (Sugen, Inc., priority 1996, dated 1998).

Tests used:
PDGF-R = PDGF-R (Homo sapiens, UniProt P09619); test: PDGF-R ELISA; assay type: cell-based
Source text: A PDGF-R ELISA is described in International Patent Publication No. WO 96/40116, published December 19, 1996 by Tang et al.

FLK-1 receptor = target: T1, FLK-1 receptor (Mus musculus, UniProt P35918); test: FLK-1 ELISA (kinase activity of the FLK-1 receptor in FLK-1/NIH3T3 cells, VEGF stimulated); assay type: cell-based; parameters: concentration or dose not given beside the values
T1 construct: expressed in transfected cells; host or cells: NIH3T3 C7#3
Outline: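 An ELISA using affinity-purified rabbit anti-FLK-1 antiserum on anti-rabbit IgG-coated plates measured VEGF-stimulated FLK-1 kinase activity. NIH3T3 C7#3 cells carrying FLK-1 were serum-starved (0.1% FBS) overnight, then exposed to compound (final 1:200 dilution, 0.5% DMSO) for two hours at 37 °C.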

T1 sequence (P35918 20-1345): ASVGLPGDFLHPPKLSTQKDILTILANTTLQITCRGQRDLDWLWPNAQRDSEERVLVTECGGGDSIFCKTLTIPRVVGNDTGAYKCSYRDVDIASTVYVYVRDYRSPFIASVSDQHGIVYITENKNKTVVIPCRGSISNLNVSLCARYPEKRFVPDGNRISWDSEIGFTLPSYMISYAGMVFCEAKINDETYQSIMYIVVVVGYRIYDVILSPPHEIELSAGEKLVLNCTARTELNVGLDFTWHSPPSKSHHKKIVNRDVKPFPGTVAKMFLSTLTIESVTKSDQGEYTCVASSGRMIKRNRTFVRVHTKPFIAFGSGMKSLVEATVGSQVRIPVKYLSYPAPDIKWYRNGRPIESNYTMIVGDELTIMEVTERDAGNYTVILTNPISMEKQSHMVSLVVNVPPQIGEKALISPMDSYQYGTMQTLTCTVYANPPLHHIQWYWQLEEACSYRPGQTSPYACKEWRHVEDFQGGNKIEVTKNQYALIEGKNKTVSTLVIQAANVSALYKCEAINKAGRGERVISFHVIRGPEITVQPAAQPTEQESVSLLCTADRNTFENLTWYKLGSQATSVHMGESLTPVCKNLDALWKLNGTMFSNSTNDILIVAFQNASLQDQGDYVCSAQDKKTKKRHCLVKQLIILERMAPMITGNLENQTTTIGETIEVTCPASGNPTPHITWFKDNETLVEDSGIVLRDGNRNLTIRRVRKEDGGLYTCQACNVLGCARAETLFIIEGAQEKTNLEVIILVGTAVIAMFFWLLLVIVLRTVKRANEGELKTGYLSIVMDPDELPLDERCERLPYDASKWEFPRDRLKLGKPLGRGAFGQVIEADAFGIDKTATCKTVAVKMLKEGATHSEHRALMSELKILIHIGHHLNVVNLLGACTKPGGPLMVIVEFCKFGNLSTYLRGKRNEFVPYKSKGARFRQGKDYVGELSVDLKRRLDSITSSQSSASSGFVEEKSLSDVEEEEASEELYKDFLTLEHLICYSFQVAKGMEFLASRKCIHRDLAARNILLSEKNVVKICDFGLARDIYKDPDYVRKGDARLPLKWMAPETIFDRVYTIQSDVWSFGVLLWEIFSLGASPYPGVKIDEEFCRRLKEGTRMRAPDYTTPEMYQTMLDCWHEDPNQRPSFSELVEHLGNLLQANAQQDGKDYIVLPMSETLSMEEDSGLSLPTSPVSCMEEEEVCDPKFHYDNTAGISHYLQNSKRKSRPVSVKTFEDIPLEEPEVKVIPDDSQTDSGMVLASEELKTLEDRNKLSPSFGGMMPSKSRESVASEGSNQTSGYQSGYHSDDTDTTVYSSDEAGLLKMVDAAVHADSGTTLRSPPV
Chain of PDGF-R (P09619 33-1106, species assumed): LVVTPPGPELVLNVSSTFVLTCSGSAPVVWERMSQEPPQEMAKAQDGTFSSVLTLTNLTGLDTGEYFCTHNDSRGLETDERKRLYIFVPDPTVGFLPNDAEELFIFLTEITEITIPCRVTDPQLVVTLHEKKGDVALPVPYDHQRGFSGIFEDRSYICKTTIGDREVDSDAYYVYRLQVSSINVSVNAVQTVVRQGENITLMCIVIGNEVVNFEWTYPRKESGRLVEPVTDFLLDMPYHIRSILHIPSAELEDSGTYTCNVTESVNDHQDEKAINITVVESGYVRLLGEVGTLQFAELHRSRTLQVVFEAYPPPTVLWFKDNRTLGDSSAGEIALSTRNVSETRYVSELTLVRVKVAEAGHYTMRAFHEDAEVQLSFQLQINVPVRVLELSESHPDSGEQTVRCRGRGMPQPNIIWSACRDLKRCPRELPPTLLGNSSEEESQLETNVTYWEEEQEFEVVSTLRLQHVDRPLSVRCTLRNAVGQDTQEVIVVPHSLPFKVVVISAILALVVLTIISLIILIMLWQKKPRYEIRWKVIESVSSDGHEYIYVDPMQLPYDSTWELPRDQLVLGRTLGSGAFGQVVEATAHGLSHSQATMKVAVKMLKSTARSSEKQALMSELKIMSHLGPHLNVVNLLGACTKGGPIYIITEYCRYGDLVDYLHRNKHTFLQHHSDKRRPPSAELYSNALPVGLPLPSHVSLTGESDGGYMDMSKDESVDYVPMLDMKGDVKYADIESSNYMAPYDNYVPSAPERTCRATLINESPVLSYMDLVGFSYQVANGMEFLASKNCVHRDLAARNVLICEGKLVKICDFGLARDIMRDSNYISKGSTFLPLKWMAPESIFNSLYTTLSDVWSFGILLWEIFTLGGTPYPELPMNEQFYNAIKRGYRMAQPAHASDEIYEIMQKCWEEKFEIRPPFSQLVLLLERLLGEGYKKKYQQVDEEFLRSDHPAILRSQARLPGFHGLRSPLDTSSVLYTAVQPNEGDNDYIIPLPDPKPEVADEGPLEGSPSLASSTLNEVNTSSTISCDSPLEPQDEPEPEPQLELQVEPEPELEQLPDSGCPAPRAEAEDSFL

| SMILES | PDGF Kinase %Inhibition (PDGF-R) [%] | Fik Kinase %Inhibition (FLK-1 receptor) [%] |
| --- | --- | --- |
| COc1cc(OC)c(OC)cc1C=C1C(=O)Nc2ccc(S(=O)(=O)Nc3ccc(C(F)(F)F)cc3)cc21 [10730/E03] | 14.6 | 34.5 |
| COc1cc(C=C2C(=O)Nc3ccc(S(=O)(=O)Nc4ccc(C(F)(F)F)cc4)cc32)cc(OC)c1OC [10730/E04] | 18.6 | 22.1 |
| CC(=O)n1cc(C=C2C(=O)Nc3ccc(S(=O)(=O)Nc4ccc(C(F)(F)F)cc4)cc32)c2ccccc21 [10730/E05] | 28.7 | 8.7 |
| O=C1Nc2ccc(S(=O)(=O)Nc3ccc(C(F)(F)F)cc3)cc2C1=Cc1coc2ccc(Cl)cc2c1=O [10730/E06] | 26.0 | 11.1 |
| O=C1Nc2ccc(S(=O)(=O)Nc3ccc(C(F)(F)F)cc3)cc2C1=Cc1ccc(-c2ccccc2Cl)o1 [10730/E07] | 30.0 | 12.0 |
| O=C1Nc2ccc(S(=O)(=O)Nc3ccc(C(F)(F)F)cc3)cc2C1=Cc1cc2ccccc2nc1Cl [10730/E08] | 48.4 | 25.1 |
| O=C1Nc2ccc(S(=O)(=O)Nc3ccc(C(F)(F)F)cc3)cc2C1=Cc1coc2c(Br)cc(Br)cc2c1=O [10730/E09] | 20.3 | 21.8 |
| COC1CC(C=C2C(=O)Nc3ccc(S(=O)(=O)Nc4ccc(C(F)(F)F)cc4)cc32)C(OC)O1 (centres unmarked) [10730/E10] | 39.6 | 26.0 |
| Cc1cc(C=C2C(=O)Nc3ccc(S(=O)(=O)Nc4ccc(C(F)(F)F)cc4)cc32)oc1C [10730/E11] | 31.7 | 29.1 |
| COc1ccc(C=C2C(=O)Nc3ccc(S(=O)(=O)N4CCOCC4)cc32)c(OC)c1OC [10730/F02] | 20.3 | 18.4 |
| COc1cc(OC)c(OC)cc1C=C1C(=O)Nc2ccc(S(=O)(=O)N3CCOCC3)cc21 [10730/F03] | 1.5 | 11.7 |
| COc1cc(C=C2C(=O)Nc3ccc(S(=O)(=O)N4CCOCC4)cc32)cc(OC)c1OC [10730/F04] | 28.7 | 18.3 |
| CC(=O)n1cc(C=C2C(=O)Nc3ccc(S(=O)(=O)N4CCOCC4)cc32)c2ccccc21 [10730/F05] | 19.5 | 19.6 |
| O=C1Nc2ccc(S(=O)(=O)N3CCOCC3)cc2C1=Cc1coc2ccc(Cl)cc2c1=O [10730/F06] | 3.2 | 21.9 |
| O=C1Nc2ccc(S(=O)(=O)N3CCOCC3)cc2C1=Cc1ccc(-c2ccccc2Cl)o1 [10730/F07] | -2.0 | 67.5 |
| O=C1Nc2ccc(S(=O)(=O)N3CCOCC3)cc2C1=Cc1cc2ccccc2nc1Cl [10730/F08] | -0.3 | 2.1 |
